Measurements published in US20240409581A1, “SMALL-MOLECULE PEPTIDE AND USE THEREOF AGAINST METABOLIC-[…] LIVER DISEASE AND FOR REDUCING BODY WEIGHT” (Tunghai University, priority 2023, published 2024).

Experiments:
Format in all cases: in vivo, C57BL/6JNarl mice (male)
[1] = system: MAFLD-mode mice (diet with 60% kcal fat+30% v/v fructose corn syrup); experiment: Analysis of the hepatic lipid content (enzymatic colorimetric method) of MAFLD-mode mice; details: eight weeks, liver; for hVLDL (hepatic very-low-density lipoprotein): calculated as 1/5 of the hepatic triglyceride level;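 as to hTC (hepatic total cholesterol): reported in mg/dL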;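 as to hTG (hepatic triglyceride): reported in mg/dL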;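 as to hVLDL (hepatic very-low-density lipoprotein): reported in mg/dL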
Description: (§1) 100 five-week-old C57BL/6JNarl mice (male) were raised in an environment whose temperature was 22-25° C., whose relative humidity was 45%-60%, and which adopted a 12-hour light/12-hour darkness cycle. The mice were fed with common feed and water for three weeks and then randomly divided into 10 groups, whose subsequent treatments are as follows:
(§2) Each of the four peptides was mixed with 0.5% Carboxymethyl Cellulose (CMC) to form a peptide solution, before the peptide solution was fed into the stomach of each mouse in the corresponding group with a syringe.
(§3) The test lasted eight weeks. The body weights of, and the amounts of food consumed by, the mice in each group were measured and recorded each week. The mice were sacrificed at the end of the test, and the livers, spleens, and white adipose tissue of the mice in each group were weighed.
After the test of example 1, the mice in each group were sacrificed, and the livers of the mice were collected in order to measure the hepatic lipid content of the liver of each mouse by an enzymatic colorimetric method. The items measured were hepatic triglyceride (hTG), hepatic total cholesterol (hTC), hepatic free fatty acid (hFFA), and hepatic very-low-density lipoprotein (hVLDL), wherein the hVLDL level was calculated as ⅕ of the hepatic triglyceride level.

[2] = system: MAFLD-mode mice (diet with 60% kcal fat+30% v/v fructose corn syrup); experiment: Biochemical analysis of blood (sALT and serum lipid indices) of MAFLD-mode mice; details: eight weeks
Description: as §1, §2, §3
After the test of example 1, blood samples were taken from the mice in each group, and the serum alanine transaminase (sALT), serum triglyceride (sTG), serum total cholesterol (sTC), serum free fatty acid (sFFA), and serum very-low-density lipoprotein (sVLDL) levels of the blood samples were measured.

[3] = system: MAFLD-mode mice (diet with 60% kcal fat+30% v/v fructose corn syrup); experiment: Animal test: body, liver, spleen and white adipose tissue weights of MAFLD-mode mice; details: for Epididymal white adipose tissue / Final body weight / Liver weight / Mesenteric white adipose tissue / Perirenal white adipose tissue / Spleen weight: eight weeks, high-fat/fructose diet; for Initial body weight: before the eight-week test
Description: as §1
Group 1: This was the blank group. The mice in this group were fed with common animal feed and distilled water.
Group 2: This was the control group. The mice in this group were fed with a diet with 60% kcal fat+30% v/v fructose corn syrup (and a 0.5% carboxymethyl cellulose (CMC) solution) and thereby induced to develop into MAFLD-mode mice.
Group 3: This was the low-dosage YF dipeptide group. The mice in this group were fed with the Tyr-Phe dipeptide at a dose of 10 mg/kg/day, in addition to a diet with 60% kcal fat+30% v/v fructose corn syrup.
Group 4: This was the high-dosage YF dipeptide group. The mice in this group were fed with the Tyr-Phe dipeptide at a dose of 50 mg/kg/day, in addition to a diet with 60% kcal fat+30% v/v fructose corn syrup.
Group 5: This was the low-dosage FY dipeptide group. The mice in this group were fed with the Phe-Tyr dipeptide at a dose of 10 mg/kg/day, in addition to a diet with 60% kcal fat+30% v/v fructose corn syrup.
Group 6: This was the high-dosage FY dipeptide group. The mice in this group were fed with the Phe-Tyr dipeptide at a dose of 50 mg/kg/day, in addition to a diet with 60% kcal fat+30% v/v fructose corn syrup.
Group 7: This was the low-dosage EWYF tetrapeptide group. The mice in this group were fed with the Glu-Trp-Tyr-Phe tetrapeptide (which has the sequence of SEQ ID No.: 1) at a dose of 10 mg/kg/day, in addition to a diet with 60% kcal fat+30% v/v fructose corn syrup.
Group 8: This was the high-dosage EWYF tetrapeptide group. The mice in this group were fed with the Glu-Trp-Tyr-Phe tetrapeptide (which has the sequence of SEQ ID No.: 1) at a dose of 50 mg/kg/day, in addition to a diet with 60% kcal fat+30% v/v fructose corn syrup.
Group 9: This was the low-dosage EWFY tetrapeptide group. The mice in this group were fed with the Glu-Trp-Phe-Tyr tetrapeptide (which has the sequence of SEQ ID No.: 2) at a dose of 10 mg/kg/day, in addition to a diet with 60% kcal fat+30% v/v fructose corn syrup.
Group 10: This was the high-dosage EWFY tetrapeptide group. The mice in this group were fed with the Glu-Trp-Phe-Tyr tetrapeptide (which has the sequence of SEQ ID No.: 2) at a dose of 50 mg/kg/day, in addition to a diet with 60% kcal fat+30% v/v fructose corn syrup.
as §2, §3

[4] = baseline of the 10 mg/kg/day group
[5] = baseline of the 50 mg/kg/day group

Substance | hFFA (hepatic free fatty acid) ([1]; 10 mg/kg/day) | hTC (hepatic total cholesterol) ([1]; 10 mg/kg/day) | hTG (hepatic triglyceride) ([1]; 10 mg/kg/day) | hVLDL (hepatic very-low-density lipoprotein) ([1]; 10 mg/kg/day) | hFFA (hepatic free fatty acid) ([1]; 50 mg/kg/day) | hTC (hepatic total cholesterol) ([1]; 50 mg/kg/day) | hTG (hepatic triglyceride) ([1]; 50 mg/kg/day) | hVLDL (hepatic very-low-density lipoprotein) ([1]; 50 mg/kg/day) | sALT (serum alanine transaminase) ([2]; 10 mg/kg/day) | sFFA (serum free fatty acid) ([2]; 10 mg/kg/day) | sTC (serum total cholesterol) ([2]; 10 mg/kg/day) | sTG (serum triglyceride) ([2]; 10 mg/kg/day) | sVLDL (serum very-low-density lipoprotein) ([2]; 10 mg/kg/day) | sALT (serum alanine transaminase) ([2]; 50 mg/kg/day) | sFFA (serum free fatty acid) ([2]; 50 mg/kg/day) | sTC (serum total cholesterol) ([2]; 50 mg/kg/day) | sTG (serum triglyceride) ([2]; 50 mg/kg/day) | sVLDL (serum very-low-density lipoprotein) ([2]; 50 mg/kg/day) | Epididymal white adipose tissue ([3]; 10 mg/kg/day into the stomach) | Final body weight ([3]; 10 mg/kg/day into the stomach) | also measured
Glu-Trp-Phe-Tyr (EWFY) [groups 9 (10 mg/kg/day) and 10 (50 mg/kg/day)] | 111.78 ± 27.75 mEq/L | 11.04 ± 1.11 mg/dL | 41.45 ± 9.45 mg/dL | 8.29 ± 1.89 mg/dL | 74.05 ± 19.5 mEq/L | 5.96 ± 0.91 mg/dL | 22.47 ± 4.84 mg/dL | 4.49 ± 0.97 mg/dL | 45.6 ± 13.91 IU/L | 0.849 ± 0.235 mEq/L | 147.45 ± 25.19 mg/dL | 100.53 ± 20.83 mg/dL | 20.11 ± 4.17 mg/dL | 34.2 ± 16.20 IU/L | 0.757 ± 0.303 mEq/L | 135.78 ± 23.48 mg/dL | 91.47 ± 18.50 mg/dL | 18.29 ± 3.70 mg/dL | 1.294 ± 0.330 g | 30.04 ± 1.70 g | Liver weight ([3]; 10 mg/kg/day into the stomach): 1.028 ± 0.068 g; Mesenteric white adipose tissue ([3]; 10 mg/kg/day into the stomach): 0.276 ± 0.081 g; Perirenal white adipose tissue ([3]; 10 mg/kg/day into the stomach): 0.513 ± 0.132 g; Spleen weight ([3]; 10 mg/kg/day into the stomach): 56.6 ± 7.0 mg; Epididymal white adipose tissue ([3]; 50 mg/kg/day into the stomach): 0.983 ± 0.231 g; Final body weight ([3]; 50 mg/kg/day into the stomach): 28.59 ± 1.82 g; Liver weight ([3]; 50 mg/kg/day into the stomach): 0.985 ± 0.072 g; Mesenteric white adipose tissue ([3]; 50 mg/kg/day into the stomach): 0.234 ± 0.056 g; Perirenal white adipose tissue ([3]; 50 mg/kg/day into the stomach): 0.445 ± 0.077 g; Spleen weight ([3]; 50 mg/kg/day into the stomach): 53.5 ± 5.7 mg; Initial body weight [3, 4]: 22.89 ± 1.08 g; Initial body weight [3, 5]: 22.78 ± 1.79 g
Glu-Trp-Tyr-Phe (EWYF) [groups 7 (10 mg/kg/day) and 8 (50 mg/kg/day)] | 108.17 ± 26.92 mEq/L | 10.74 ± 1.38 mg/dL | 39.45 ± 9.93 mg/dL | 7.89 ± 1.99 mg/dL | 87.71 ± 21.90 mEq/L | 8.19 ± 1.07 mg/dL | 31.49 ± 8.04 mg/dL | 6.29 ± 1.61 mg/dL | 39.3 ± 20.17 IU/L | 0.782 ± 0.309 mEq/L | 139.71 ± 20.52 mg/dL | 96.18 ± 21.42 mg/dL | 19.24 ± 4.28 mg/dL | 27.9 ± 14.00 IU/L | 0.692 ± 0.24 mEq/L | 126.96 ± 24.59 mg/dL | 81.84 ± 20.39 mg/dL | 16.37 ± 4.08 mg/dL | 1.146 ± 0.306 g | 29.76 ± 1.77 g | Liver weight ([3]; 10 mg/kg/day into the stomach): 0.988 ± 0.084 g; Mesenteric white adipose tissue ([3]; 10 mg/kg/day into the stomach): 0.263 ± 0.070 g; Perirenal white adipose tissue ([3]; 10 mg/kg/day into the stomach): 0.499 ± 0.060 g; Spleen weight ([3]; 10 mg/kg/day into the stomach): 55.5 ± 6.4 mg; Epididymal white adipose tissue ([3]; 50 mg/kg/day into the stomach): 0.909 ± 0.269 g; Final body weight ([3]; 50 mg/kg/day into the stomach): 27.42 ± 1.97 g; Liver weight ([3]; 50 mg/kg/day into the stomach): 0.973 ± 0.089 g; Mesenteric white adipose tissue ([3]; 50 mg/kg/day into the stomach): 0.199 ± 0.061 g; Perirenal white adipose tissue ([3]; 50 mg/kg/day into the stomach): 0.418 ± 0.104 g; Spleen weight ([3]; 50 mg/kg/day into the stomach): 51.2 ± 5.9 mg; Initial body weight [3, 4]: 22.84 ± 1.71 g; Initial body weight [3, 5]: 22.82 ± 1.13 g
Phe-Tyr [FY] | 119.27 ± 29.07 mEq/L | 12.06 ± 1.19 mg/dL | 44.58 ± 6.77 mg/dL | 8.92 ± 1.35 mg/dL | 112.49 ± 25.02 mEq/L | 10.97 ± 1.2 mg/dL | 41.49 ± 8.52 mg/dL | 8.30 ± 1.70 mg/dL | 53.1 ± 21.40 IU/L | 1.03 ± 0.338 mEq/L | 158.43 ± 20.37 mg/dL | 106.80 ± 23.45 mg/dL | 21.36 ± 4.69 mg/dL | 42.6 ± 17.60 IU/L | 0.905 ± 0.179 mEq/L | 146.76 ± 19.73 mg/dL | 97.80 ± 22.91 mg/dL | 19.56 ± 4.58 mg/dL | 1.328 ± 0.234 g | 30.10 ± 1.29 g | Liver weight ([3]; 10 mg/kg/day into the stomach): 1.037 ± 0.089 g; Mesenteric white adipose tissue ([3]; 10 mg/kg/day into the stomach): 0.289 ± 0.055 g; Perirenal white adipose tissue ([3]; 10 mg/kg/day into the stomach): 0.544 ± 0.077 g; Spleen weight ([3]; 10 mg/kg/day into the stomach): 58.8 ± 7.2 mg; Epididymal white adipose tissue ([3]; 50 mg/kg/day into the stomach): 1.220 ± 0.301 g; Final body weight ([3]; 50 mg/kg/day into the stomach): 28.93 ± 1.27 g; Liver weight ([3]; 50 mg/kg/day into the stomach): 0.991 ± 0.078 g; Mesenteric white adipose tissue ([3]; 50 mg/kg/day into the stomach): 0.257 ± 0.067 g; Perirenal white adipose tissue ([3]; 50 mg/kg/day into the stomach): 0.487 ± 0.098 g; Spleen weight ([3]; 50 mg/kg/day into the stomach): 54.2 ± 5.6 mg; Initial body weight [3, 4]: 22.88 ± 1.09 g; Initial body weight [3, 5]: 22.75 ± 1.10 g
